23 molecules from patent publication US20260297080A1, “BICYCLIC COMPOUNDS AS CDK INHIBITORS” (BeOne Medicines I GmbH, priority 2022, published 2026) can be followed below.

The target in one test is CDK1/Cyclin B1 (Homo sapiens, UniProt P06493). The test can be described thus: CDK1/Cyclin B1 Biochemical Assay (TR-FRET), 0.015 mM ATP. Conditions: 0.15 μM Rb (Ser780)-biotin substrate, pH7.0, 60 min preincubation, 120 min reaction, room temperature. The procedure, abridged: (§1)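 TR-FRET assay with 0.15 μM Rb (Ser780)-biotin substrate and 0-10 μM compound in 50 mM HEPES pH7.0, 50 mM MgCl2, 1 mM DTT. ATP was 0.060 mM for CDK2/Cyclin E1 and 0.015 mM for CDK1/Cyclin B1. Kinase was preincubated with compound 60 min, reacted 120 min at room temperature, and IC50 was fitted (four-parameter) from the 665/620 nm ratio.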
CDK1/Cyclin B1, sequence (P06493 whole entry): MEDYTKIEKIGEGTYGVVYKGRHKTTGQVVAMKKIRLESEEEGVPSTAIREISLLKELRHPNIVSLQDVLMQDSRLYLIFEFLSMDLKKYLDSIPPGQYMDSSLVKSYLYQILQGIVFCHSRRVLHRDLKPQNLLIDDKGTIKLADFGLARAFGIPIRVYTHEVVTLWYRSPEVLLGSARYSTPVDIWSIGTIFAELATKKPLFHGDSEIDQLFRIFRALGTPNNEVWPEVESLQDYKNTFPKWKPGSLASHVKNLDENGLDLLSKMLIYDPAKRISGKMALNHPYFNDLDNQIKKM
CDK1/Cyclin B1, sequence (P14635 whole entry partner): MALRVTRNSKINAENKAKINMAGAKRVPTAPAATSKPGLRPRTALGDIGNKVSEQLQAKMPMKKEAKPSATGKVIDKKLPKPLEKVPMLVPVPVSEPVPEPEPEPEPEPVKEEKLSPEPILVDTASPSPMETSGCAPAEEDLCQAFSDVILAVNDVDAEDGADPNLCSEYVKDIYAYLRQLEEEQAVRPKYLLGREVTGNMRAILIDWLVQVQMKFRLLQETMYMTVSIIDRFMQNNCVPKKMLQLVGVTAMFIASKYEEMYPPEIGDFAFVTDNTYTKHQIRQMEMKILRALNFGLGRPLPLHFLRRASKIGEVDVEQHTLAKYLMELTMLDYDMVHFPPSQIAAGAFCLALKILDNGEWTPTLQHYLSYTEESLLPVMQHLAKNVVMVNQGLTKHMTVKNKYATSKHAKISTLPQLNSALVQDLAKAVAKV
A general note: In TR-FRET formats the signal depends on donor and acceptor labels being close together.

The next test has as its target CDK2/Cyclin E1 (Homo sapiens, UniProt P24941). The test can be described thus: CDK2/Cyclin E1 Biochemical Assay (TR-FRET), 0.060 mM ATP. The conditions noted are these: 0.15 μM Rb (Ser780)-biotin substrate, pH7.0, 60 min preincubation, 120 min reaction, room temperature. The gist of the method: as §1

Structures are written as SMILES.

With `CC(C)NC(=O)O[C@H]1CC[C@@H](c2cc(Nc3ccc4c(c3)S(=O)(=O)NC4C)[nH]n2)C1` (single isomer, unassigned) [Example 5d, cis-3-(5-((3-methyl-1,1-dioxido-2,3-dihydrobenzo[d]isothiazol-6-yl)amino)-1H-pyrazol-3-yl)cyclopentyl isopropylcarbamate], the IC50 (commonly the concentration that inhibits the measured activity by half) against CDK1/Cyclin B1 came to 0.045 µM; on CDK2/Cyclin E1 it was 0.0029 µM.

Regarding `CC(C)NC(=O)O[C@@H]1CC[C@H](c2cc(Nc3ccc4c(c3)CS(=O)(=O)N4)n[nH]2)C1` (single isomer, unassigned) [Example 7a], the IC50 on CDK1/Cyclin B1 worked out at 0.028 µM; on CDK2/Cyclin E1, 0.0009 µM.

On to `CC(C)NC(=O)O[C@H]1CC[C@@H](c2cc(Nc3ccc4c(c3)CS(=O)(=O)N4)n[nH]2)C1` (single isomer, unassigned) [Example 7b], for which the figures for the IC50 against CDK1/Cyclin B1 and against CDK2/Cyclin E1 were 0.017 µM and 0.0009 µM, respectively.

On to `CC(C)NC(=O)O[C@H]1CC[C@@H](c2cc(Nc3ccc4c(c3F)CNS4(=O)=O)n[nH]2)C1` (single isomer, unassigned) [Example 9a, cis-3-(3-((4-fluoro-1,1-dioxido-2,3-dihydrobenzo[d]isothiazol-5-yl)amino)-1H-pyrazol-5-yl)cyclopentyl isopropylcarbamate], for which the results for the 50% inhibitory concentration (IC50) against CDK1/Cyclin B1 and against CDK2/Cyclin E1 were 0.375 µM and 0.0045 µM, respectively.

`CC(C)NC(=O)O[C@H]1CC[C@@H](c2cc(Nc3ccc4c(c3F)CNS4(=O)=O)n[nH]2)C1` (single isomer, unassigned) [Example 9b, cis-3-(3-((4-fluoro-1,1-dioxido-2,3-dihydrobenzo[d]isothiazol-5-yl)amino)-1H-pyrazol-5-yl)cyclopentyl isopropylcarbamate]: the IC50 stood at 0.094 µM at CDK1/Cyclin B1 and 0.0025 µM at CDK2/Cyclin E1.

Take `CC(C)NC(=O)O[C@H]1CC[C@@H](c2cc(Nc3cc4c(cc3F)S(=O)(=O)NC4)n[nH]2)C1` (single isomer, unassigned) [Example 12a, cis-3-(3-((6-fluoro-1,1-dioxido-2,3-dihydrobenzo[d]isothiazol-5-yl)amino)-1H-pyrazol-5-yl)cyclopentyl isopropylcarbamate]: the IC50 against CDK1/Cyclin B1 was 0.921 µM; at CDK2/Cyclin E1 it was 0.01 µM.

As to `CC(C)NC(=O)O[C@H]1CC[C@@H](c2cc(Nc3cc4c(cc3F)S(=O)(=O)NC4)n[nH]2)C1` (single isomer, unassigned) [Example 12b, cis-3-(3-((6-fluoro-1,1-dioxido-2,3-dihydrobenzo[d]isothiazol-5-yl)amino)-1H-pyrazol-5-yl)cyclopentyl isopropylcarbamate], the IC50 against CDK1/Cyclin B1 was determined as 0.359 µM; against CDK2/Cyclin E1 it was 0.0093 µM.

On to `CC(C)NC(=O)O[C@H]1CC[C@@H](c2cc(Nc3ccc4c(c3Cl)CNS4(=O)=O)n[nH]2)C1` (single isomer, unassigned) [Example 38a, cis-3-(3-((4-chloro-1,1-dioxido-2,3-dihydrobenzo[d]isothiazol-5-yl)amino)-1H-pyrazol-5-yl)cyclopentyl isopropylcarbamate], for which the IC50 is 1.5 µM against CDK1/Cyclin B1 and 0.038 µM on CDK2/Cyclin E1.

Turning to `CC(C)NC(=O)O[C@H]1CC[C@@H](c2cc(Nc3ccc4c(c3Cl)CNS4(=O)=O)n[nH]2)C1` (single isomer, unassigned) [Example 38b, cis-3-(3-((4-chloro-1,1-dioxido-2,3-dihydrobenzo[d]isothiazol-5-yl)amino)-1H-pyrazol-5-yl)cyclopentyl isopropylcarbamate], the IC50 at CDK1/Cyclin B1 turned out to be 0.279 µM; at CDK2/Cyclin E1, 0.013 µM.

Take `CCCNC(=O)O[C@H]1CC[C@@H](c2cc(Nc3ccc4c(c3Cl)CNS4(=O)=O)n[nH]2)C1` (single isomer, unassigned) [Example 39a, cis-3-(3-((4-chloro-1,1-dioxido-2,3-dihydrobenzo[d]isothiazol-5-yl)amino)-1H-pyrazol-5-yl)cyclopentyl propylcarbamate]: the IC50 against CDK1/Cyclin B1 stood at 1.36 µM; on CDK2/Cyclin E1 it was 0.049 µM.

On to `CCCNC(=O)O[C@H]1CC[C@@H](c2cc(Nc3ccc4c(c3Cl)CNS4(=O)=O)n[nH]2)C1` (single isomer, unassigned) [Example 39b, cis-3-(3-((4-chloro-1,1-dioxido-2,3-dihydrobenzo[d]isothiazol-5-yl)amino)-1H-pyrazol-5-yl)cyclopentyl propylcarbamate], for which the results for the IC50 against CDK1/Cyclin B1 and against CDK2/Cyclin E1 were 0.39 µM and 0.026 µM, respectively.

With `CC1(NC(=O)O[C@H]2CC[C@@H](c3cc(Nc4ccc5c(c4Cl)CNS5(=O)=O)n[nH]3)C2)CC1` (single isomer, unassigned) [Example 40a, cis-3-(3-((4-chloro-1,1-dioxido-2,3-dihydrobenzo[d]isothiazol-5-yl)amino)-1H-pyrazol-5-yl)cyclopentyl(1-methylcyclopropyl)carbamate], the IC50 at CDK1/Cyclin B1 came to 0.37 µM; against CDK2/Cyclin E1, 0.0054 µM.

Turning to `CC1(NC(=O)O[C@H]2CC[C@@H](c3cc(Nc4ccc5c(c4Cl)CNS5(=O)=O)n[nH]3)C2)CC1` (single isomer, unassigned) [Example 40b, cis-3-(3-((4-chloro-1,1-dioxido-2,3-dihydrobenzo[d]isothiazol-5-yl)amino)-1H-pyrazol-5-yl)cyclopentyl(1-methylcyclopropyl)carbamate], the IC50 amounted to 0.181 µM on CDK1/Cyclin B1 and 0.0031 µM on CDK2/Cyclin E1.

As to `CCCNC(=O)O[C@H]1CC[C@@H](c2cc(Nc3cc4c(cc3F)S(=O)(=O)NC4)n[nH]2)C1` (single isomer, unassigned) [Example 42a, cis-3-(3-((6-fluoro-1,1-dioxido-2,3-dihydrobenzo[d]isothiazol-5-yl)amino)-1H-pyrazol-5-yl)cyclopentyl propylcarbamate], the IC50 on CDK1/Cyclin B1 was determined as 0.891 µM; against CDK2/Cyclin E1 it was 0.014 µM.

On to `CCCNC(=O)O[C@H]1CC[C@@H](c2cc(Nc3cc4c(cc3F)S(=O)(=O)NC4)n[nH]2)C1` (single isomer, unassigned) [Example 42b, cis-3-(3-((6-fluoro-1,1-dioxido-2,3-dihydrobenzo[d]isothiazol-5-yl)amino)-1H-pyrazol-5-yl)cyclopentyl propylcarbamate], for which the IC50 was determined as 0.128 µM on CDK1/Cyclin B1 and 0.0055 µM at CDK2/Cyclin E1.

As for `CC1(NC(=O)O[C@H]2CC[C@@H](c3cc(Nc4cc5c(cc4F)S(=O)(=O)NC5)n[nH]3)C2)CC1` (single isomer, unassigned) [Example 44a, cis-3-(3-((6-fluoro-1,1-dioxido-2,3-dihydrobenzo[d]isothiazol-5-yl)amino)-1H-pyrazol-5-yl)cyclopentyl(1-methylcyclopropyl)carbamate], the IC50 was 0.138 µM at CDK1/Cyclin B1 and 0.0013 µM at CDK2/Cyclin E1.

Turning to `CC1(NC(=O)O[C@H]2CC[C@@H](c3cc(Nc4cc5c(cc4F)S(=O)(=O)NC5)n[nH]3)C2)CC1` (single isomer, unassigned) [Example 44b, cis-3-(3-((6-fluoro-1,1-dioxido-2,3-dihydrobenzo[d]isothiazol-5-yl)amino)-1H-pyrazol-5-yl)cyclopentyl(1-methylcyclopropyl)carbamate], the results for the IC50 on CDK1/Cyclin B1 and against CDK2/Cyclin E1 were 0.091 µM and 0.0025 µM, respectively.

On to `CC(C)NC(=O)O[C@H]1CC[C@@H](c2cc(Nc3ccc4c(c3F)C(C)NS4(=O)=O)n[nH]2)C1` (single isomer, unassigned) [Example 51a, cis-3-(3-((4-fluoro-3-methyl-1,1-dioxido-2,3-dihydrobenzo[d]isothiazol-5-yl)amino)-1H-pyrazol-5-yl)cyclopentyl isopropylcarbamate], for which the results for the IC50 on CDK1/Cyclin B1 and at CDK2/Cyclin E1 were 0.194 µM and 0.0025 µM, respectively.

With `CC(C)NC(=O)O[C@H]1CC[C@@H](c2cc(Nc3ccc4c(c3F)C(C)NS4(=O)=O)n[nH]2)C1` (single isomer, unassigned) [Example 51b, cis-3-(3-((4-fluoro-3-methyl-1,1-dioxido-2,3-dihydrobenzo[d]isothiazol-5-yl)amino)-1H-pyrazol-5-yl)cyclopentyl isopropylcarbamate], the results for the half-maximal inhibitory concentration (IC50) against CDK1/Cyclin B1 and against CDK2/Cyclin E1 were 0.082 µM and 0.0033 µM, respectively.

In the case of `CC(C)NC(=O)O[C@H]1CC[C@@H](c2cc(Nc3ccc4c(c3F)C(C)NS4(=O)=O)n[nH]2)C1` (single isomer, unassigned) [Example 51c, cis-3-(3-((4-fluoro-3-methyl-1,1-dioxido-2,3-dihydrobenzo[d]isothiazol-5-yl)amino)-1H-pyrazol-5-yl)cyclopentyl isopropylcarbamate], the IC50 on CDK1/Cyclin B1 was determined as 0.106 µM; against CDK2/Cyclin E1 it was 0.0021 µM.

On to `CC(C)NC(=O)O[C@H]1CC[C@@H](c2cc(Nc3ccc4c(c3F)C(C)NS4(=O)=O)n[nH]2)C1` (single isomer, unassigned) [Example 51d, cis-3-(3-((4-fluoro-3-methyl-1,1-dioxido-2,3-dihydrobenzo[d]isothiazol-5-yl)amino)-1H-pyrazol-5-yl)cyclopentyl isopropylcarbamate], for which the results for the IC50 at CDK1/Cyclin B1 and at CDK2/Cyclin E1 were 0.447 µM and 0.0087 µM, respectively.

Consider `CC1NS(=O)(=O)c2ccc(Nc3cc([C@@H]4CC[C@H](OC(=O)NC5(C)CC5)C4)[nH]n3)c(F)c21` (single isomer, unassigned) [Example 52a, cis-3-(3-((4-fluoro-3-methyl-1,1-dioxido-2,3-dihydrobenzo[d]isothiazol-5-yl)amino)-1H-pyrazol-5-yl)cyclopentyl(1-methylcyclopropyl)carbamate], for which the IC50 turned out to be 0.274 µM against CDK1/Cyclin B1 and 0.0035 µM against CDK2/Cyclin E1.

Regarding `CC1NS(=O)(=O)c2ccc(Nc3cc([C@@H]4CC[C@H](OC(=O)NC5(C)CC5)C4)[nH]n3)c(F)c21` (single isomer, unassigned) [Example 52b, cis-3-(3-((4-fluoro-3-methyl-1,1-dioxido-2,3-dihydrobenzo[d]isothiazol-5-yl)amino)-1H-pyrazol-5-yl)cyclopentyl(1-methylcyclopropyl)carbamate], the IC50 against CDK1/Cyclin B1 was determined as 0.153 µM; at CDK2/Cyclin E1, 0.0027 µM.
